Assay results taken from patent US20020127228A1, “PGT and apoptosis” (WELFIDE CORPORATION, priority 1998, published 2002).

Legend:
[1] = test system: rat cerebral cortical neurons; experiment: Apoptosis induced by amyloid beta peptide in rat cerebral cortical neurons, Hoechst 33342; format: cell-based
Method: The cortex region of embryonic day 17 or 18 rat cerebrum was extracted on ice. Cells were dispersed using a neuron dispersal solution (Sumilon) after sectioning. Afterwards, cells were dispersed to a density of 1.5×10^5 cells/cm^2 in a culturing flask that was coated with polyethyleneimine beforehand. After 4 days of culturing, the following experiment was provided. Therefore, as the culture medium, Neurobasal medium (Gibco) adding with B27 supplement (1/50 volume), 2-mercaptoethanol (27.5 μM), L-glutamic acid (25 μM), and glutamine (0.5 mM) was used.
Amyloid beta peptide 25-35 (Aβ25-35) was dissolved in distilled water to a concentration of 1 mM, incubated for 1 week at about 37° C., and Aged-Aβ25-35 was prepared. The induction of apoptosis in neuron was performed by the replacement of the aforementioned culture medium (with the exception of L-glutamicacid) containing 10 μM Aged-Aβ25-35.
4) It was investigated that the suppressing effect of PGE1 on apoptosis induced by amyloid beta peptide. After dissolution of PGE1 in ethanol, when the aforementioned 2) Aged-Aβ25-35 was added to the culture medium, simultaneously PGE1 solution was added to it. The final concentration thereof was 1 μM.
Cells were washed with PBS (−) at 24 hrs after induction of apoptosis and fixed for 30 mins at room temperature using a 1% glutaraldehyde solution (in PBS). Next, cell were washed with PBS (−) two times and followed by incubation with 1 mM Hoechst 33342 solution (in PBS) for 2 mins. Afterwards, observation of nuclear chromatin morphology was conducted using a fluorescence microscope with 4 arbitrary visual fields. Normal cells and apoptotic cells (cell where chromatin fragmentation or condensation was appeared) were counted, and the ratio was calculated as the incidence of apoptosis. The n was 3.
6) The relationship between PGT inhibitors and apoptosis induced by amyloid beta peptide was investigated. BrCG, which is a PGT inhibitor, with a final concentration of 60 μM was added simultaneously with PGE1 but other manners were in accordance with the aforementioned ones in 1)-5).
It was investigated that the influence of PGT antisense on the inhibitory effect of PGE1 against apoptosis induced by amyloid beta peptide. PGT antisense was used as it is with regard to the oligonucleotide in Experiment 3. The addition concentration thereof was 1.5 μM. Incidence of apoptosis was performed in accordance with Experiment 5. Then was 3.
1) Drugs having an inhibitory activity against induction of apoptosis by amyloid beta peptide were investigated. After dissolving test drugs (PGE1, PGK1, PGK2, and bicyclo PGE2) in ethanol, when Aged-Aβ25-35 was added to the culture medium, simultaneously test drug solution were added to it. But other manners were in accordance with Experiment 5. Ratio of normal cells and apoptotic cells allowed calculation of the rate of inhibition of apoptosis induction.

SAPK/JNK = SAPK/JNK activation in PC12 cells after NGF withdrawal, Western blot; format: cell-based, rat; parameters: key to Degree of luminescence: +++ is extremely strong; + is confirmed luminescence; ± is poor luminescence; conditions: for Degree of luminescence: phosphorylated JNK band
Method: 4) Intercellular signals via SAPK/JNK Stress-activated protein kinase/Jun N-terminal kinase (abbreviated SAPK/JNK) is associated with apoptosis induction. Thus, intercellular signals within cells via SAPK/JNK were investigated based upon effects with respect to variations in SAPK/JNK activity.
The present experiment was performed with Western blot analysis. Individual additives were added to cell culturing medium for PC12 cells in accordance with the aforementioned experiment. Culturing was performed for 1-4 hrs after withdrawal of NGF. PC12 cells were lysed with a buffer solution, centrifuged, and the supernatant of cell lysate was prepared. After said supernatant was incubated with JNK 1 polyclonal antibodies (Santa Cruz Biotechnology) at 4° C. for 1 hr. Protein A sepharose was added to it. The resultant was incubated for 1 hr and the immunoprecipitate as described below was provided. […] of cell lysate was conducted with SDS-PAGE electrophoresis, and transferred to a nylon membrane (Amersham Pharmacia Biotech). Blotting of phosphorylated (active) JNK antibodies (Santa Cruz Biotechnology) was performed with this membrane, and bands were detected in accordance with the instruction manual. Intercellular signals within cells were amplified by chemiluminescence and auto radioactivity methods (FCL, Amersham Pharmacia Biotech).

## CCCCC[C@H](O)/C=C/[C@H]1[C@H](O)CC(=O)[C@@H]1CCCCCCC(=O)O [PGE1, prostaglandin E1]
[1]
  Effect on apoptosis induced by amyloid beta peptide (in words): suppressed apoptosis inducted by amyloid beta peptide
[1]; Experiment 5, PGE1 1 μM, 10 μM Aged-Aβ25-35, 24 hrs, n 3
  Incidence of apoptosis (%): 23 ± 2 %
[1]; Experiment 6, PGE1, Aged-Aβ25-35, n 3
  Incidence of apoptosis (%): 23 ± 2 %
[1]; Experiment 7, test drug added with Aged-Aβ25-35
  Inhibition of apoptosis induction (%): 38.2%
SAPK/JNK; 1 hr after NGF withdrawal
  Effect on SAPK/JNK activation (in words): the activation was suppressed
SAPK/JNK; PGE1 0.1 μM
  Degree of luminescence: +
SAPK/JNK; PGE1 1 μM
  Degree of luminescence: ±
